According to the NIST ThermoML archive (doi:10.1016/j.jct.2012.11.015):

Assays:
[1] = Liquid; for speed of sound: Sing-around technique in a fixed-path interferometer; for mass density: Vibrating tube method
[2] = refractive index (Na D-line) (dimensionless); conditions: 298.15 K; 101.33 kPa; Liquid; Standard Abbe refractometry
[3] = xn = mol fraction of the nth substance listed; conditions: 101 kPa, Liquid, Vibrating tube method

CCCCCCCCCCO [decan-1-ol]
[1]
Conditions | mass density, 298.15 K [kg/m3] | mass density, 303.15 K [kg/m3] | mass density, 308.15 K [kg/m3] | mass density, 313.15 K [kg/m3] | speed of sound, 298.15 K [m/s]
101 kPa | – | 822.853 | 819.427 | 816.383 | –
101.33 kPa | 826.562 | – | – | – | 1380

Conditions | refractive index
[2] | 1.4348

CCCCCCCCCCO [decan-1-ol] + CN(C)C=O
mass density [kg/m3], [3]
Conditions | x2 = 0 | x2 = 0.2361 | x2 = 0.4193 | x2 = 0.5688 | x2 = 0.6724 | x2 = 0.7496 | x2 = 0.8185 | x2 = 0.8748 | x2 = 0.923 | x2 = 0.9632
298.15 K | 826.562 | 838.6 | 851.13 | 864.685 | 876.794 | 887.827 | 899.61 | 910.986 | 922.298 | 933.094
303.15 K | 822.853 | 834.589 | 846.845 | 860.269 | 872.216 | 883.031 | 894.603 | 905.795 | 916.997 | 927.772
308.15 K | 819.427 | 830.903 | 843.033 | 856.394 | 868.282 | 879.008 | 890.399 | 901.448 | 912.559 | 923.333
313.15 K | 816.383 | 827.267 | 839.221 | 852.343 | 863.94 | 874.443 | 885.574 | 896.397 | 907.34 | 918.051

CN(C)C=O [dimethylformamide]
[1]
Conditions | mass density, 298.15 K [kg/m3] | mass density, 303.15 K [kg/m3] | mass density, 308.15 K [kg/m3] | mass density, 313.15 K [kg/m3] | speed of sound, 298.15 K [m/s]
101 kPa | – | 939.047 | 934.721 | 929.478 | –
101.33 kPa | 944.29 | – | – | – | 1457.7

Conditions | refractive index
[2] | 1.428

CN(C)C=O [dimethylformamide] + CCCCCCCCCCO
[3], x1 = 1
Conditions | mass density [kg/m3]
298.15 K | 944.29
303.15 K | 939.047
308.15 K | 934.721
313.15 K | 929.478

CN(C)C=O [dimethylformamide] + CCCCCCCCCO
[3], x1 = 1
Conditions | mass density [kg/m3]
298.15 K | 944.29
303.15 K | 939.047
308.15 K | 934.721
313.15 K | 929.478

CN(C)C=O [dimethylformamide] + CCCCCCCCO
[3], x1 = 1
Conditions | mass density [kg/m3]
298.15 K | 944.29
303.15 K | 939.047
308.15 K | 934.721
313.15 K | 929.478

CCCCCCCCCO [nonan-1-ol]
[1]
Conditions | mass density, 298.15 K [kg/m3] | mass density, 303.15 K [kg/m3] | mass density, 308.15 K [kg/m3] | mass density, 313.15 K [kg/m3] | speed of sound, 298.15 K [m/s]
101 kPa | – | 821.044 | 817.582 | 814.098 | –
101.33 kPa | 824.478 | – | – | – | 1365.5

Conditions | refractive index
[2] | 1.4319
